Data published in patent US6737383B1, “Herbicidal oxadiazolidines” (priority 1999, dated 2004).

Experiments:
[1] = test system: rice; assay: Test B flood test rice; assay type: in vivo, Oryza sativa
Outline: (§1)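 Each value is a visual injury score relative to controls, with 10 meaning complete control and 0 no effect. Evaluation took place twelve to sixteen days after the 2-leaf-stage plants were treated and kept in the greenhouse.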

[2] = test system: velvetleaf; assay: Test B pre/postemergence velvetleaf; assay type: in vivo, Abutilon theophrasti
Outline: (§2)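 Test chemicals in a non-phytotoxic solvent mixture with surfactant were sprayed preemergence onto planted seeds and postemergence onto plants 2 to 18 cm tall (1- to 4-leaf stage). After twelve to sixteen days in a greenhouse, injury was visually rated against untreated controls from 0 (no effect) to 10 (complete control).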

[3] = test system: sugar beet; assay: Test B pre/postemergence sugar beet; assay type: in vivo, Beta vulgaris
Outline: as §2

[4] = test system: morningglory; assay: Test B pre/postemergence morningglory; assay type: in vivo, Ipomoea hederacea
Outline: as §2

[5] = test system: duck salad; assay: Test B flood test duck salad; assay type: in vivo, Heteranthera limosa
Outline: as §1

[6] = test system: wheat; assay: Test B pre/postemergence wheat; assay type: in vivo, Triticum aestivum
Outline: as §2

[7] = test system: soybean; assay: Test B pre/postemergence soybean; assay type: in vivo, Glycine max
Outline: as §2

[8] = test system: purple nutsedge; assay: Test B pre/postemergence purple nutsedge; assay type: in vivo, Cyperus rotundus
Outline: as §2

[9] = test system: cocklebur; assay: Test B pre/postemergence cocklebur; assay type: in vivo, Xanthium strumarium
Outline: as §2

[10] = test system: smallflower flatsedge; assay: Test B flood test smallflower flatsedge; assay type: in vivo, Cyperus difformis
Outline: as §1

[11] = test system: wild oat; assay: Test B pre/postemergence wild oat; assay type: in vivo, Avena fatua
Outline: as §2

[12] = test system: giant foxtail; assay: Test B pre/postemergence giant foxtail; assay type: in vivo, Setaria faberii
Outline: as §2

[13] = test system: pigweed; assay: Test B pre/postemergence pigweed; assay type: in vivo, Amaranthus retroflexus
Outline: as §2

[14] = test system: corn; assay: Test B pre/postemergence corn; assay type: in vivo, Zea mays
Outline: as §2

[15] = test system: crabgrass; assay: Test B pre/postemergence crabgrass; assay type: in vivo, Digitaria sanguinalis
Outline: as §2

[16] = test system: rape; assay: Test B pre/postemergence rape; assay type: in vivo, Brassica napus
Outline: as §2

[17] = Rate 62 g/ha, headed Pre-emergence (flood test species), scale 0 to 10 (0 no effect, 10 complete control)
[18] = Rate 125 g/ha, Pre-emergence, flood test species, scale 0 to 10 where 0 is no effect and 10 is complete control
[19] = Rate 250 g/ha, Pre-emergence, flood-test species, scale 0 to 10, 0 is no effect, 10 is complete control
[20] = Rate 500 g/ha, Pre-emergence, flood test species, scale 0 to 10 (0 no effect, 10 complete control)
[21] = Preemergence, Rate 62 g/ha, scale of 0 to 10 where 0 is no effect and 10 is complete control
[22] = Preemergence, Rate 250 g/ha, scale of 0 to 10 where 0 is no effect and 10 is complete control
[23] = Preemergence, Rate 500 g/ha, scale of 0 to 10 where 0 is no effect and 10 is complete control
[24] = Rate 125 g/ha, Postemergence, scale of 0 to 10 where 0 is no effect and 10 is complete control
[25] = Rate 125 g/ha, Preemergence, scale of 0 to 10 where 0 is no effect and 10 is complete control
[26] = Rate 250 g/ha, Postemergence, scale of 0 to 10 where 0 is no effect and 10 is complete control
[27] = Rate 500 g/ha, Postemergence, scale 0 to 10, 0 no effect, 10 complete control
[28] = Rate 62 g/ha, Postemergence, scale of 0 to 10 where 0 is no effect and 10 is complete control

Structure (SMILES): CC(C)N(C(=O)n1oc(=O)n(CC(C)(C)C)c1=O)c1ccccc1 [Compound 276]
- Rice plant response rating [1, 17]: 0
- Rice plant response rating [1, 18]: 0
- Rice plant response rating [1, 19]: 0
- Rice plant response rating [1, 20]: 0
- Velvetleaf plant response rating [2, 21]: 0
- Velvetleaf plant response rating [2, 22]: 0
- Plant response rating, Velvetleaf [2, 23]: 3
- Velvetleaf plant response rating [2, 24]: 0
- Velvetleaf plant response rating [2, 25]: 0
- Plant response rating, Velvetleaf [2, 26]: 0
- Velvetleaf plant response rating [2, 27]: 0
- Sugarbeets plant response rating [3, 21]: 0
- Sugarbeets plant response rating [3, 22]: 1
- Plant response rating, Sugarbeets [3, 23]: 7
- Sugarbeets plant response rating [3, 24]: 0
- Sugarbeets plant response rating [3, 25]: 1
- Plant response rating, Sugarbeets [3, 26]: 2
- Sugarbeets plant response rating [3, 27]: 2
- Morningglory plant response rating [4, 21]: 0
- Morningglory plant response rating [4, 22]: 0
- Plant response rating, Morningglory [4, 23]: 0
- Morningglory plant response rating [4, 24]: 6
- Morningglory plant response rating [4, 25]: 0
- Plant response rating, Morningglory [4, 26]: 6
- Morningglory plant response rating [4, 27]: 8
- Ducksalad plant response rating [5, 17]: 0
- Ducksalad plant response rating [5, 18]: 0
- Ducksalad plant response rating [5, 19]: 0
- Ducksalad plant response rating [5, 20]: 0
- Wheat plant response rating [6, 21]: 0
- Wheat plant response rating [6, 22]: 0
- Plant response rating, Wheat [6, 23]: 3
- Wheat plant response rating [6, 24]: 0
- Wheat plant response rating [6, 25]: 0
- Plant response rating, Wheat [6, 26]: 0
- Wheat plant response rating [6, 27]: 0
- Soybean plant response rating [7, 21]: 0
- Soybean plant response rating [7, 22]: 0
- Plant response rating, Soybean [7, 23]: 0
- Soybean plant response rating [7, 24]: 5
- Soybean plant response rating [7, 25]: 0
- Plant response rating, Soybean [7, 26]: 6
- Soybean plant response rating [7, 27]: 7
- Nutsedge plant response rating [8, 21]: 0
- Nutsedge plant response rating [8, 24]: 0
- Nutsedge plant response rating [8, 25]: 0
- Plant response rating, Nutsedge [8, 26]: 0
- Nutsedge plant response rating [8, 27]: 0
- Cocklebur plant response rating [9, 21]: 0
- Cocklebur plant response rating [9, 22]: 0
- Plant response rating, Cocklebur [9, 23]: 0
- Cocklebur plant response rating [9, 28]: 0
- Cocklebur plant response rating [9, 24]: 0
- Cocklebur plant response rating [9, 25]: 0
- Plant response rating, Cocklebur [9, 26]: 0
- Cocklebur plant response rating [9, 27]: 0
- S. Flatsedge plant response rating [10, 17]: 0
- S. Flatsedge plant response rating [10, 18]: 0
- S. Flatsedge plant response rating [10, 19]: 0
- S. Flatsedge plant response rating [10, 20]: 0
- Wild oats plant response rating [11, 21]: 0
- Wild oats plant response rating [11, 22]: 4
- Plant response rating, Wild oats [11, 23]: 6
- Wild oats plant response rating [11, 24]: 0
- Plant response rating, Wild oats [11, 26]: 0
- Wild oats plant response rating [11, 27]: 0
- Giant foxtail plant response rating [12, 21]: 9
- Giant foxtail plant response rating [12, 22]: 10
- Plant response rating, Giant foxtail [12, 23]: 10
- Giant foxtail plant response rating [12, 24]: 1
- Giant foxtail plant response rating [12, 25]: 10
- Plant response rating, Giant foxtail [12, 26]: 4
- Giant foxtail plant response rating [12, 27]: 6
- Redroot pigweed plant response rating [13, 21]: 0
- Redroot pigweed plant response rating [13, 22]: 2
- Plant response rating, Redroot pigweed [13, 23]: 4
- Redroot pigweed plant response rating [13, 24]: 0
- Redroot pigweed plant response rating [13, 25]: 0
- Plant response rating, Redroot pigweed [13, 26]: 1
- Redroot pigweed plant response rating [13, 27]: 2
- Corn plant response rating [14, 21]: 0
- Corn plant response rating [14, 22]: 0
- Plant response rating, Corn [14, 23]: 0
- Corn plant response rating [14, 28]: 0
- Corn plant response rating [14, 24]: 0
- Corn plant response rating [14, 25]: 0
- Plant response rating, Corn [14, 26]: 0
- Corn plant response rating [14, 27]: 0
- Crabgrass plant response rating [15, 21]: 3
- Crabgrass plant response rating [15, 22]: 6
- Plant response rating, Crabgrass [15, 23]: 7
- Crabgrass plant response rating [15, 24]: 0
- Crabgrass plant response rating [15, 25]: 4
- Plant response rating, Crabgrass [15, 26]: 6
- Crabgrass plant response rating [15, 27]: 7
- Rape plant response rating [16, 21]: 0
- Rape plant response rating [16, 22]: 1
- Plant response rating, Rape [16, 23]: 10
- Rape plant response rating [16, 24]: 0
- Rape plant response rating [16, 25]: 0
- Plant response rating, Rape [16, 26]: 0
- Rape plant response rating [16, 27]: 0
